The source made the active and inactive calls. The calls are words filed in the database; no cut-off is given here.
How the values were obtained:
Assay type in all cases: cell-based
[1] = target: T1, Transient receptor potential cation channel subfamily M member 4 (Homo sapiens, UniProt Q8TD43); assay: Inhibition of Flag-tagged TRPM4 (unknown origin) expressed in HEK293 cells assessed as reduction in intracellular Na+ influx after 45 mins by ANG2 dye-based fluorescence assay
[2] = target: T1, Transient receptor potential cation channel subfamily M member 4; assay: Inhibition of Flag-tagged TRPM4 (unknown origin) expressed in HEK293 cells assessed as reduction in intracellular Na+ influx up to 100 uM after 45 mins by ANG2 dye-based fluorescence assay
[3] = target: T1, Transient receptor potential cation channel subfamily M member 4; assay: Inhibition of Flag-tagged TRPM4 (unknown origin) expressed in HEK293 cells assessed as reduction in intracellular Na+ influx at 10 uM after 45 mins by ANG2 dye-based fluorescence assay relative to control

T1 sequence (Q8TD43 whole entry): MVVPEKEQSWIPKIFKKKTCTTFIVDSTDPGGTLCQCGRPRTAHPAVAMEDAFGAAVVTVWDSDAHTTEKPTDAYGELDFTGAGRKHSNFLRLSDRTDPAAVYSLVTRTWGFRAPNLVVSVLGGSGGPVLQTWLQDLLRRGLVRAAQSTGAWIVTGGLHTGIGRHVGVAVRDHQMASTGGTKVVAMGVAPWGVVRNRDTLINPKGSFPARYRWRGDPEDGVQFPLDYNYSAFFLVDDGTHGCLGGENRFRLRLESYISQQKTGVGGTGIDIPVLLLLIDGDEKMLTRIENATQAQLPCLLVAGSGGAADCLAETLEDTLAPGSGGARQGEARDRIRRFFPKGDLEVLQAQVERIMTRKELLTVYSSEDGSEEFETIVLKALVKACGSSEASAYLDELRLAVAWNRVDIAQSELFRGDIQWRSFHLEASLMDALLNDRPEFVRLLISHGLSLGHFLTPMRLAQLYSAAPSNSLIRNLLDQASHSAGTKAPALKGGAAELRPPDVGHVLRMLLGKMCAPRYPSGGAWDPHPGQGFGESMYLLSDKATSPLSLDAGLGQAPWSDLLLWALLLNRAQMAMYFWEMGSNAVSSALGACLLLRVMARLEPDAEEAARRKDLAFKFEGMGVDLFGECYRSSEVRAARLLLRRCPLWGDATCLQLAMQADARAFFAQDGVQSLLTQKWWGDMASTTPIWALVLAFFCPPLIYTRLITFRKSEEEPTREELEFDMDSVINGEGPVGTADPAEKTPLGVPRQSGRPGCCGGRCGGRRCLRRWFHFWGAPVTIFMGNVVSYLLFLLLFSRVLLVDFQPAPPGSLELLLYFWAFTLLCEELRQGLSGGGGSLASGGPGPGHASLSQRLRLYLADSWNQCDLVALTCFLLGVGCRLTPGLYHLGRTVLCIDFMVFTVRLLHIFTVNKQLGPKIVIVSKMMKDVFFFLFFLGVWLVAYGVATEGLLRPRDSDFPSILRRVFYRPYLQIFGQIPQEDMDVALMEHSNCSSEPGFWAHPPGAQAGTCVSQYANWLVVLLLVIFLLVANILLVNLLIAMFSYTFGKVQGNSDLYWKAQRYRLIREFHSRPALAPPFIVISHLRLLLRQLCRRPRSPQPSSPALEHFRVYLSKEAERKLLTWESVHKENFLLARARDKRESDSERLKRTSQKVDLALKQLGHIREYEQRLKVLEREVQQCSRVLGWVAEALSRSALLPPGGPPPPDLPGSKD

Structure (SMILES): O=C(COc1ccccc1Cl)Nc1cc(-c2ncco2)ccc1C(=O)O
- IC50 [1]: 4.9 µM

Structure (SMILES): Cc1cccc(NC(=O)COc2ccccc2Cl)c1C(=O)O
- IC50 [1]: 1.3 µM

Structure (SMILES): Cc1noc(C)c1-c1ccc(C(=O)O)c(NC(=O)COc2ccccc2Cl)c1
- inhibition [2]: inactive

Structure (SMILES): O=C(COc1ccccc1Cl)Nc1cc(Cl)c(Cl)cc1C(=O)O
- inhibition [3]: 30%

Structure (SMILES): Cc1cc(Cl)ccc1OC(C)C(=O)Nc1cc(Cl)ccc1C(=O)O (centres undefined)
- IC50 ([1]; hek293): 1.6 µM

Structure (SMILES): O=C(COc1ccccc1Cl)Nc1cc(-c2ccsc2)ccc1C(=O)O
- IC50 [1]: 5.9 µM

Structure (SMILES): N#Cc1ccc(C(=O)O)c(NC(=O)COc2ccccc2Cl)c1
- IC50 [1]: 3.6 µM

Structure (SMILES): O=C(COc1ccccc1Cl)Nc1cc(-c2nccs2)ccc1C(=O)O
- IC50 [1]: 4.7 µM

Structure (SMILES): O=C(COc1ccccc1Cl)Nc1cc(Cl)ccc1C(=O)NS(=O)(=O)C1CC1
- IC50 [1]: 2.8 µM

From ChEMBL document CHEMBL4400524, “Optimizing TRPM4 inhibitors in the MHFP6 chemical space” (Eur J Med Chem, 2019)
